Measured values reported in patent US12385042B2, “Cell-penetrating peptides” (VECTIOPEP OÜ, priority 2019, dated 2025).
“Also recorded” adds a separate entry of the source. Where a SMILES comes first, the peptide text is derived from it. Bridges are numbered along the chain shown (N, C = ends). Roman numbers before positions name the chains, in order. [ ]: non-standard residue; d: D form. The star is where a group is joined. Arachidoyl = CCCCCCCCCCCCCCCCCCCC(=O)*; Stearoyl = CCCCCCCCCCCCCCCCCC(=O)*; Orn = NCCC[C@H](N)C(=O)O

Columns and labels:
[1] = Fluorescent dye (PicoGreen) intercalation and heparin displacement assay of CPP/siRNA complexes; type: physicochemical
Description: Complexation of siRNA and CPPs was assessed by Quant-iT™ PicoGreen® (PG) (Thermo Fisher Scientific, USA) assay in mQ water. Complexes were prepared as described previously, following addition of diluted PG. For detection, complexes (⅕ of volume), water (3/5) and PG (1/5) working dilution was incubated for 5 minutes and fluorescence was measured by fluorimeter (λex=492 nm, λem=535 nm) (SynergyMx, BioTek). For heparin displacement, instead of water, heparin salt solution at different concentrations were used and complexes incubated at 37° C. for 30 min before addition of PG dilution. Complex formation was also confirmed by gel electrophoresis (details in section 2.11).

[2] = Negative staining TEM of CPP/siRNA nanoparticles; type: physicochemical; details: CPP/siRNA complexes at MR30
Description: For the morphological analysis the CPP/siRNA complexes were assembled as described above at MR30. For negative staining, copper grids were covered with Formvar film and carbon layer using Leica EM ACE600 carbon coater (Leica Microsystems, Germany). Then, 10 μL of each sample was absorbed to the grids for 2 min and excess of solution was gently removed. Samples were then exposed to 2% aqueous uranyl acetate solution for 1 min. After removing excess stain with filter paper, the samples were allowed to air-dry. The samples were examined at 120 kV accelerating voltage on FEI Tecnai G2 Spirit electron microscope (FEI, The Netherlands).

[3] = system: U87 MG-luc2 human glioma cells, stably expressing luc2; assay: Luciferase gene downregulation by CPP/siRNA (siLuc2) complexes; type: cell-based; details: for Red (%) (reduction, based on remaining luminescence on U87 cells post-treatment) / luciferase downregulation efficiency (in words): CPP/siRNA complexes; for Red (%) (reduction, based on remaining luminescence on U87 cells post-treatment): siRNA against luciferase; for luciferase downregulation efficiency (in words): comparison between CPPs
Description: (§1) For assessing the siRNA mediated RNAi, CHO-GFP or U87-luc2 cells (5×10^5 cells per well) were seeded on a 24-well plate a day prior to the experiment and grown in serum containing media. On experiment day, prior to adding pre-formed complexes ( 1/10th of the final volume per well), media was replaced with fresh serum containing medium.
(§2) For complex formation, peptide was mixed with luc2 siRNA (sense 5′-[…]-3′ (SEQ ID NO:7), antisense 5′-[…] 3′ (SEQ ID NO:8), Metabion, Germany) or with siRNA against GFP (5′-[…] (SEQ ID NO:9), 3′-[…] (SEQ ID NO:10)) in mQ water (pH 5.3-6.3) using peptide to siRNA molar ratios (MR is the ratio of peptide to siRNA) […] and incubated at RT for 1 h. For siLuc2, the final concentration in media was 25 nM and for siGFP 100 nM. Cells were co-incubated with complexes for 4 h (37° C., 5% CO2), thereafter fresh serum containing media was added and followed by further incubation (20 h for siLuc2 or 44 h for siGFP complexes). Luciferase gene downregulation was measured from cell lysates with Promega luciferase assay system (Promega, Sweden) in combination with GLOMAX 96 microplate luminometer equipped with GLOMAX 1.9.2 software (Promega). GFP was measured after treatment from cell lysates on black 96-well plates by measuring total fluorescence (Symergy MX, BioTek Instruments, USA equipped with Gen5 1.10 software). The results were normalized to the protein content of each sample (DC Protein Assay, BioRad, USA).
Luciferase activity was determined as described in previous paragraph.
For determination of pH dependency on the transfection efficiency, complexes were formed at MR30, incubated and diluted before addition to cells to obtain siRNA final concentration 10 nM in transfection media. HEPES buffer supplemented with 10% FBS was used as transfection media. Complexes were co-incubated with cells for 4 h and then media was replaced with cell growth media. After further 20 h incubation cells were lysed and analyzed as described previously.
The experiment was carried out in serum containing media (10% FBS). CPP/siRNA complexes were formed at different molar ratios with siRNA concentration kept constant (50 nM in transfection media). Luminescence from luciferin-luciferase reaction was measured at 24 hours post-treatment from cell lysate. Results were normalized to protein content and luminescence values from untreated cells (100%).

murine red blood cells = assay: Membrane activity assay on murine red blood cells: hemolysis; type: cell-based, mouse; details: for HC50 Free peptide: pH 7.5; for pH dependent hemolytic activity (in words): buffer pH 5.5-7.5
Description: For evaluation of membrane activity of peptides, hemolysis assay was used. For this whole blood was collected from mouse (adult, BALB/c) saphenous vein into a heparinized collection tube. Blood was centrifuged (2300× g, 15 min) to separate cells (red blood cells-RBC) from the plasma. RBCs were washed according to following procedures.
RBCs were washed with 10 ml 0.9% NaCl saline and centrifuged (600× g, 15 min). Supernatant was discarded after each centrifugation. This was repeated at least 3 times. RBCs were re-suspended in 5 ml saline and distributed equally to tubes and centrifuged (600× g, 15 min). The cells were washed and re-suspended in 2× PBS with the required pH (pH 5.5-7.5). The hemoglobin content in stocks was measured after lysis of cells with equal volume of 0.1% Triton X100 supplemented with 5% glucose. The cell suspension was diluted accordingly for each pH value to obtain similar concentration range of hemoglobin in stocks. To each 100 ul of peptide solution 100 ul of 10% glucose was added, mixed, and equal volume (200 ul) of RBC in 2× PBS were added and gently mixed. Peptide solution with RBCs was incubated at 37° C. for 1 h with gentle mixing (max 300 rpm) after which samples were centrifuged to pellet intact cells from the solution. Hemoglobin from lysed cells was determined from each sample from the supernatant on transparent 96-well plates by measuring the absorbance at 540 nm.
Controls were incubated in similar manner as samples. As a non-hemolysis control mQ supplemented with glucose (0%) was used and for hemolytic control 0.1% TritonX-100 with glucose (100%) was used (cells are suspended in 2× PBS before addition). Final percent was calculated as follows: […]
For hemolytic concentration determination 2× PBS at pH 7.5 was used for incubation and 1× PBS at pH 7.5 was used for washing. Everything else is as described in previous paragraph.

[4] = system: CHO stably expressing green fluorescent protein (GFP); assay: GFP gene downregulation by CPP/siGFP complexes (lysate fluorescence, FACS, confocal); type: cell-based
Description: as §1, §2
For flow cytometry analysis (FACS) analysis CHO-GFP cells were seeded and treated as described previously. After incubation, cells were washed with 1× PBS and detached from plates with trypsin-EDTA (0.25%), and re-suspended in PBS supplemented with FBS (5%) and transferred to transparent U-bottom 96-well plates. FACS was carried out with BD LSR II flow cytometer (BD Biosciences, San Jose, CA, USA) equipped with a 488 nm argon laser. Population of viable cells was determined from scatter plot: forward scattered plot (FSC) vs. side scattered light (SSC) plot. A minimum of 10,000 events from the viable cell population per sample were analyzed using BD FACS Diva software. Results are shown as the population with GFP signal lower than that of 0.1% of untreated cells.
For confocal microscopy 2×10^5 cells per chamber were seeded on NUNC 8-chamber plates. After treatment with complexes (25 ul of pre-formed CPP/siRNA complexes added to cells in 225 ul serum containing media), incubated (48 h) and GFP florescence images of cells were captured using confocal microscope Zeiss LSM 710 and excitation at 488 nm (493-616 filter).

CHO cells = assay: pDNA (p-CMV-Luc2) transfection with CPP/pDNA complexes; type: cell-based; details: serum containing medium, CR1 to CR4, 24 h
Description: For the pDNA transfection experiment, CPP/pDNA nanoparticles were prepared by mixing […] of plasmid (p-CMV-Luc2) with the peptide in MQ water. Charge ratios from 1 to 4 (CR, equivalent to the nitrogen-to-phosphate ratio) were used. 50,000 CHO cells were seeded 24 hr before the experiment into 24-well plates, treated with complexes for 4 h in serum-containing medium, incubated for additional 20 hr, lysed and luminescence was measured.

| Compound | length or size of elongated particles, conglomerates or aggregates (TEM) [2] | Red (%) (reduction, based on remaining luminescence on U87 cells post-treatment) [3] | luciferase downregulation efficiency (in words) [3] | pDNA delivery / gene expression in vitro (in words) (CHO cells) | further results |
| --- | --- | --- | --- | --- | --- |
| CCCCCCCCCCCCCCCCCC(=O)N[C@@H](C)C(=O)NCC(=O)N[C@@H](Cc1ccc(O)cc1)C(=O)N[C@@H](CC(C)C)C(=O)N[C@@H](CC(C)C)C(=O)NCC(=O)NCCC[C@H](N)C(=O)N[C@H](C(=O)N[C@@H](CC(N)=O)C(=O)N[C@@H](CC(C)C)C(=O)N[C@@H](CCCCN)C(=O)N[C@@H](C)C(=O)N[C@@H](CC(C)C)C(=O)N[C@@H](C)C(=O)N[C@@H](C)C(=O)N[C@@H](CC(C)C)C(=O)N[C@@H](C)C(=O)N[C@@H](CCCCN)C(=O)N[C@@H](C)C(=O)N[C@H](C(=O)N[C@@H](CC(C)C)C(N)=O)[C@@H](C)CC)[C@@H](C)CC [NF55, reference compound] (I: H-[Orn]INLKALAALAKAIL-NH2 / II: Stearoyl-AGYLLG; amide I:1-II:C) | up to 100 nm | 75 | – | – | siRNA accessible ([1]; 0.5 mg/ml heparin, complexes pre-formed at MR30): 10%; nanoparticle diameter / size (TEM) [2]: 10-50 nm; HC50 CPP/siRNA complex (peptide concentration) (murine red blood cells; CPP/siRNA complexes at MR30): 3.2 µM; HC50 Free peptide (murine red blood cells; free peptide): 1.7 µM; increase of hemolytic activity at pH 5.5 (murine red blood cells; peptide 0.75 uM, buffer pH 5.5): 25%; pH dependent hemolytic activity (in words) (murine red blood cells; peptide 0.75 uM): least influenced by the pH decrease |
| CCCCCCCCCCCCCCCCCCCC(=O)N[C@@H](Cc1c[nH]cn1)C(=O)N[C@@H](Cc1c[nH]cn1)C(=O)N[C@@H](Cc1c[nH]cn1)C(=O)N[C@@H](Cc1c[nH]cn1)C(=O)N[C@@H](Cc1c[nH]cn1)C(=O)N[C@@H](Cc1c[nH]cn1)C(=O)N[C@@H](Cc1ccc(O)cc1)C(=O)N[C@@H](Cc1c[nH]cn1)C(=O)N[C@@H](Cc1c[nH]cn1)C(=O)NCC(=O)NCCC[C@H](N)C(=O)N[C@H](C(=O)N[C@@H](CC(C)C)C(=O)N[C@@H](CC(C)C)C(=O)N[C@@H](CCCCN)C(=O)N[C@@H](C)C(=O)N[C@@H](CC(C)C)C(=O)N[C@@H](CCCCN)C(=O)N[C@@H](C)C(=O)N[C@@H](CC(C)C)C(=O)N[C@@H](C)C(=O)N[C@@H](CCCCN)C(=O)N[C@@H](C)C(=O)N[C@H](C(=O)N[C@@H](CC(C)C)C(N)=O)[C@@H](C)CC)[C@@H](C)CC [NF72] (I: H-[Orn]ILLKALKALAKAIL-NH2 / II: Arachidoyl-HHHHHHYHHG; amide I:1-II:C) | – | 80 | significantly less efficient than other compared CPPs | – | cells with downregulated reporter gene (GFP signal below threshold), FACS ([4]; CHO-GFP, CPP/siGFP complexes): 40%; GFP signal in confocal images ([4]; live cells treated with CPP/siGFP complexes): higher GFP signal when compared to complexes formed with peptides with less histidines in sequence; accessibility of siRNA in complexes (dye intercalation) ([1]; MR30, no heparin): low accessibility of siRNA; remaining reporter activity ([3]; molar ratio 30 (MR30, peptide to siRNA), untreated cells 100%): 34%; HC50 Free peptide (murine red blood cells; free peptide): >10 µM; hemolytic activity of free peptide (in words) (murine red blood cells; free peptide, up to 10 uM): less hemolytic than that of other peptides; pH dependent hemolytic activity (in words) (murine red blood cells; peptide 0.75 uM): almost no effect at physiologic pH, but lysed almost all cells at pH 5.5 |
| HHHHYHHGO^eILLKALKALAKAIL [NF700, group H6; without fatty acid; C-terminally amidated] | exceed 500 nm | 6 | do not reveal any significant luciferase silencing activity | – | – |
| HHHHYHHGO^eILLKALKALAKAIL [NF702, group H6; C18 saturated fatty acid on N-terminus; C-terminally amidated] | – | 70 | – | almost yielded the same gene expression level as that of NF70 and NF55; also recorded: promising vectors for pDNA transfection | – |
| HHHHYHHGO^eILLKALKALAKAIL [NF703, group H6; C22 saturated fatty acid on N-terminus; C-terminally amidated] | 10-20 nm | 73 | RNA interference effect decreases again | – | – |
| HHHYHHGO^eILLKALKALAKAIL [NF716, group H5; C20 saturated fatty acid on N-terminus; C-terminally amidated] | – | 65 | – | promising vectors for pDNA transfection | – |
| HYHHGO^eILLKALKALAKAIL [NF727, group H3; C22 saturated fatty acid on N-terminus; C-terminally amidated] | – | 43 | – | promising vectors for pDNA transfection | – |
